Measured values reported in ChEMBL document CHEMBL2074057, “Active secretion of drugs from the small intestinal epithelium in rats by P-glycoprotein functioning as an absorption barrier” (J Pharm Pharmacol, 1996).

Legend:
[1] = molecular target: T1, ATP-dependent translocase ABCB1 (Homo sapiens, UniProt P08183); assay: TP_TRANSPORTER: uptake in K562 and K562/ADR cell; type: functional, cell-based
[2] = molecular target: T1, ATP-dependent translocase ABCB1; assay: TP_TRANSPORTER: transepithelial transport (basal to apical) in Caco-2 cells; type: functional, cell-based

T1 sequence (P08183 whole entry): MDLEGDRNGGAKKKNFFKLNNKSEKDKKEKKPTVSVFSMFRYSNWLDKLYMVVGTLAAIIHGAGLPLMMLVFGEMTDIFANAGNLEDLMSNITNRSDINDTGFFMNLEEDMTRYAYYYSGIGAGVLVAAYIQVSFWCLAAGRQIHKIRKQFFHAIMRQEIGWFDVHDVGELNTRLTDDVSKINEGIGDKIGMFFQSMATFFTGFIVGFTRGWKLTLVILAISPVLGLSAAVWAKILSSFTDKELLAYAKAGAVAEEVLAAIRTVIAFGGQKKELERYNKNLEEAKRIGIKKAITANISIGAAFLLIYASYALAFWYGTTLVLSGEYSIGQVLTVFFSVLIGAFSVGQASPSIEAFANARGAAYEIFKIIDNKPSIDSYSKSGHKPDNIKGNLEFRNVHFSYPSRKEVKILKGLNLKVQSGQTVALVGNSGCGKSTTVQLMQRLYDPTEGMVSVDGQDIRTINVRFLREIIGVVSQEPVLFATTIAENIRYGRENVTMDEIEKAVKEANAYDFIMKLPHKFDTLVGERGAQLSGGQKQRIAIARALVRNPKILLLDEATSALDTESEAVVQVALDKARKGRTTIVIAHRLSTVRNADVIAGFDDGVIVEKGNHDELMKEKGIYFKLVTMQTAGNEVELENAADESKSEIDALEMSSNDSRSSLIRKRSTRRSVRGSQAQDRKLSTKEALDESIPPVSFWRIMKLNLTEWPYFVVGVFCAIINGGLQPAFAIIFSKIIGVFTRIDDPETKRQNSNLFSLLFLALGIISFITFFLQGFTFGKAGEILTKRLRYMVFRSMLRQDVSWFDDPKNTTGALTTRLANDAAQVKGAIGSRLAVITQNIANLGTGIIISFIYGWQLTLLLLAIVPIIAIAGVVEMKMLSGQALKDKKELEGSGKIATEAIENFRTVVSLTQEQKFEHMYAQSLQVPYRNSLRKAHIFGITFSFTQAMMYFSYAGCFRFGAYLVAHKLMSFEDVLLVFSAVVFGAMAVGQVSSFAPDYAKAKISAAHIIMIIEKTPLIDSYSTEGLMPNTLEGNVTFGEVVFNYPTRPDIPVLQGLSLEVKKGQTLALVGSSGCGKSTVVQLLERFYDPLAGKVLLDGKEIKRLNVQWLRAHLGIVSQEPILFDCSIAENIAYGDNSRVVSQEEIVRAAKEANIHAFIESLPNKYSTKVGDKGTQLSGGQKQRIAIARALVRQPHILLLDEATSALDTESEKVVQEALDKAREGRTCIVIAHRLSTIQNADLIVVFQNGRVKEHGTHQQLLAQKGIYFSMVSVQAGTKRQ

CC(C)(C)NCC(O)COc1cccc2c1CC(O)C(O)C2 (stereo not given) [NADOLOL] was tested, and the Activity [1] was “substrate [+]”.
With CCN(CC)C(=O)Nc1ccc(OCC(O)CNC(C)(C)C)c(C(C)=O)c1 (stereo not given) [CELIPROLOL] the Activity [1] was “substrate [+]”.
With CCCC(=O)Nc1ccc(OCC(O)CNC(C)C)c(C(C)=O)c1 (stereo not given) [ACEBUTOLOL] the Activity [1] was “substrate [+]” and the Activity [2] was “substrate [+]”.
With CC(C)(C)NC[C@H](O)COc1nsnc1N1CCOCC1 [TIMOLOL] the Activity [1] was “substrate [+]”.
